In US6974804B2, “Esters” (Unilever Home & Personal Care USA, division of Conopco, Inc., priority 2000, dated 2005):

Columns and labels:
Type in all cases: physicochemical
[1] = DSC of gels: fibre dissolution temperature (FDT) and solubility of structurant; conditions: for Solubility of structurant at 25° C.: from DSC of gel, relative to benchmark REF 2; for FDT: gel heated at 5 K/min in DSC, peak temperature of the highest peak
Protocol: In this Example the Fibre dissolution temperature (FDT) is measured in the DSC process described later herein, by observing when the fibres dissolve whilst the temperature of sample rises. FDT is taken to be the peak temperature of the highest peak.
In REF2 and REF3, the acyl substituents at the other seven cellobiose sites are nonanoyl.
Samples of gel (about 20 mg) were sealed in stainless steel capsules for DSC. An empty stainless steel capsule was used as the physical reference. The samples were subjected to the following temperature programme:
The sample was heated to 100° C. and held at 100° C. for 1 minute, in order to obtain an isotropic solution. The sample was then cooled at 5 K/min to −20° C. The sample was held at −20° C. for 1 minute. The sample is now a gel on the bottom of the sample capsule prepared in a reproducible manner. The gel was then heated at 5 K/min to 100° C. Data was also obtained with empty stainless steel pans as both physical sample and reference. This blank data was later subtracted from the sample data to remove any curvature in the base line.

[2] = Stability testing of gels: crystal growth visible by eye on storage at 37° C.; conditions: for Observations: 9% of REF1 and 1% of additional structurant
Protocol: Gels were made up using 10% structurant in a 60:40 mixture of Hydrogenated Polyisobutene (Panalene L14E):DC245. The gels, in sealed glass bottles, were left to stand for 18 hrs at room temperature, after which they were transferred to an oven thermostatically controlled to 37° C. Samples were checked periodically for signs of crystal growth visible by eye. REF1 is cellobiose octanonanoate.
Gels were made up and tested in accordance with the procedure in Example 6, as such or modified by employing a weight ratio of 9% of REF1 and 1% of an additional structurant as specified in Table 13 below.
The test procedure of Example 9 was repeated, but using ACB structurant REF2 alone as the structurant or to which a CHME structurant was added.

[3] = Visual assessment score (clarity of gel in 1 cm cuvette); conditions: for Clarity Visual (assessment score): 9% REF2 and 1% of the specified ester in 60:40 hydrogenated polydecene:DC245, scale −12 to 8; for Clarity Visual (appearance): 60:40 hydrogenated polydecene:DC245 gelled with 9% REF2 and 1% of the specified cellobiose ester
Outline: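 A gel in a 1 cm cuvette was laid on white paper printed with 21 graded sets of black figures, numbered −12 (largest, thickest) to 8 (smallest, thinnest). The score was the highest-numbered set read clearly through the gel, with higher meaning clearer.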

[4] = Light transmission at 580 nm (% T); conditions: for Clarity % T: 9% REF2 and 1% of the specified ester in 60:40 hydrogenated polydecene:DC245, 580 nm
Protocol: The translucency of a composition may be measured by placing a sample of standardised thickness in the light path of a spectrophotometer and measuring transmittance, as a percentage of light transmitted in the absence of the gel.
This test was carried out using a dual-beam spectrophotometer. The sample of composition was poured hot into a 4.5 ml cuvette made of poly(methyl-methacrylate) (PMMA) and allowed to cool to an ambient temperature of 20-25° C. Such a cuvette gives a 1 cm thickness of composition. […] A transmittence measured at any temperature in the range from 20-25° C. is usually adequately accurate, but measurement is made at 22° C. if more precision is required.

[5] = Gelling of water-immiscible cosmetic liquids in 96 well glass micro-titre plate; set-up: key: gel; g4: gel after overnight (18 hrs) storage at 4° C.; g22: gel after overnight (18 hrs) storage at 22° C.; sg: soft gel; sg22: soft gel after overnight (18 hrs) storage at 22° C.; solution; *: the test at 4° C. was not carried out; conditions: for gelling of ISA: 150° C. 2.5 hours, cooled to ambient
Outline: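 Gel formation was scored by eye and by poking with a micro-spatula at three points: on cooling to room temperature, after 18 h at 18 °C, and after another 18 h at 4 °C. Before this, mixtures of cosmetic liquid with roughly 5% or 10% cellobiose ester were heated at 150 °C for 2.5 h.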

[6] = 10% structurant in 60:40 Panalene L14E:DC245, after 17 days at 37° C.
[7] = 5% cellobiose ester in Finsolv TN
[8] = 5% cellobiose ester in Fluid AP
[9] = 5% cellobiose ester in Mineral oil
[10] = 5% cellobiose ester in Polydecene
[11] = 10% cellobiose ester in Finsolv TN
[12] = 10% cellobiose ester in Fluid AP
[13] = 10% cellobiose ester in Mineral oil
[14] = 10% cellobiose ester in Polydecene
[15] = REF2 to which the CHME structurant was added, after 12 days at 37° C.

| SMILES | Solubility of structurant at 25° C. [1] | FDT [1] | Observation [2, 6] | Clarity Visual (assessment score) [3] | Clarity Visual (appearance) [3] | Clarity % T [4] | gelling of DC556 ([5]; 5% cellobiose ester in DC556) | gelling of Finsolv TN [5, 7] | gelling of Fluid AP [5, 8] | gelling of IPM ([5]; 5% cellobiose ester in IPM) | gelling of ISA ([5]; 5% cellobiose ester in ISA) | gelling of Mineral oil [5, 9] | gelling of Polydecene [5, 10] | gelling of DC556 ([5]; 10% cellobiose ester in DC556) | gelling of Finsolv TN [5, 11] | gelling of Fluid AP [5, 12] | gelling of IPM ([5]; 10% cellobiose ester in IPM) | gelling of ISA ([5]; 10% cellobiose ester in ISA) | gelling of Mineral oil [5, 13] | gelling of Polydecene [5, 14] | also measured |
| --- | --- | --- | --- | --- | --- | --- | --- | --- | --- | --- | --- | --- | --- | --- | --- | --- | --- | --- | --- | --- | --- |
| CCCCCCCCC(=O)OC[C@H]1O[C@@H](O[C@H]2[C@H](OC(=O)CCCCCCCC)[C@@H](OC(=O)CCCCCCCC)C(OC(=O)CCCCCCCC)O[C@@H]2COC(=O)CCCCCCCC)[C@H](OC(=O)CCCCCCCC)[C@@H](OC(=O)CCCCCCCC)[C@@H]1OC(=O)CCCCCCCC (stereo partly shown) [REF 2, cellobiose octanonanoate] | Benchmark. Some | 47 °C | Large amount of crystals throughout | slight haze 5 | transparent/ | 41% | – | – | – | – | – | – | – | – | – | – | – | – | – | – | Observation ([2]; 10% structurant in 60:40 Panalene L14E:DC245, after 7 days at 37° C.): Slight loss of clarity after 7 days; Observation ([2]; 10% structurant in 60:40 Panalene L14E:DC245, after 7 days at 37° C., listed as REF2): Slight loss of clarity after 7 days at 37 °C; Observation ([2]; 10% structurant in 60:40 Panalene L14E:DC245, after 8 days at 37° C.): Fine crystals on surface after 8; Observation ([2]; 10% structurant in 60:40 Panalene L14E:DC245, after 8 days at 37° C., listed as REF2): Fine crystals on surface after 8 days at 37 °C; Observation ([2]; 10% structurant in 60:40 Panalene L14E:DC245, after 9 days at 37° C.): Fine needle crystals throughout gel; Observation ([2]; 10% structurant in 60:40 Panalene L14E:DC245, after 9 days at 37° C., listed as REF2): Fine needle crystals throughout gel after 9; Observation ([2]; 10% structurant in 60:40 Panalene L14E:DC245, after 13 days at 37° C., listed as REF2): More needle crystals in gel bulk and crystal; % T Ex 1.12 ([4]; CHME = Ex 1.12, CHME:REF2 at stated weight ratio, total 10% in 60:40 Silkflo 364NF:DC245): 41%; % T Ex 1.13 ([4]; CHME = Ex 1.13, CHME:REF2 at stated weight ratio, total 10% in 60:40 Silkflo 364NF:DC245): 41% |
| CCCCCCCCC(=O)OCC1OC(OC2C(COC(=O)CCCCCCCC)OC(OC(=O)c3ccccc3)C(OC(=O)CCCCCCCC)C2OC(=O)CCCCCCCC)C(OC(=O)CCCCCCCC)C(OC(=O)CCCCCCCC)C1OC(=O)CCCCCCCC (mixture of isomers) [Ex 1.2] | Less soluble. No | 67 °C | No crystals after 17 days. | translucent 4 | transparent/ | 38% | gel | sol | sg | sol | sg | sg | gel | gel | sol | gel | sol | gel | gel | gel | – |
| CCCCCCCCC(=O)OCC1OC(OC2C(COC(=O)CCCCCCCC)OC(OC(=O)c3ccc4ccccc4c3)C(OC(=O)CCCCCCCC)C2OC(=O)CCCCCCCC)C(OC(=O)CCCCCCCC)C(OC(=O)CCCCCCCC)C1OC(=O)CCCCCCCC (mixture of isomers) [Ex 1.3] | Less soluble. No | 63 °C | – | 4 | transparent | 58% | gel | sol | gel | g4 | gel | g22 | gel | gel | g4 | gel | g22 | gel | g22 | gel | Observations ([2]; after 12 days at 37° C.): No crystals after 12 days at 37 °C; Observation [2, 15]: No crystals after 12 days at 37 °C |
| CCCCCCCCC(=O)OCC1OC(OC2C(COC(=O)CCCCCCCC)OC(OC(C)=O)C(OC(=O)CCCCCCCC)C2OC(=O)CCCCCCCC)C(OC(=O)CCCCCCCC)C(OC(=O)CCCCCCCC)C1OC(=O)CCCCCCCC (mixture of isomers) [Ex 1.7] | Less soluble. No | 72 °C | No crystals after 17 days. | > 8 | transparent | 52% | gel | – | gel | – | sg | sg | gel | gel | – | gel | – | gel | gel | gel | Observations ([2]; after 13 days at 37° C.): Slight crystal growth on surface after 13; Observation ([2]; REF2 to which the CHME structurant was added, after 13 days at 37° C.): Slight very fine crystal growth after 13 |
| CCCCCCCCC(=O)OCC1OC(OC2C(COC(=O)CCCCCCCC)OC(OC(=O)c3ccccc3)C(OC(=O)CCCCCCCC)C2OC(=O)CCCCCCCC)C(OC(=O)CCCCCCCC)C(OC(=O)CCCCCCCC)C1OC(=O)CCCCCCCC (mixture of isomers) [Ex 1.1] | Less soluble. No | 64 °C | – | translucent 5 | transparent/ | 55% | gel | g4 | gel | g4 | g22 | gel | gel | gel | gel | gel | gel | gel | gel | gel | Observations ([2]; after 11 days at 37° C.): Slight crystal growth on surface after 11; Observation [2, 15]: No crystals after 12 days at 37 °C |
| CCCCCCCCC(=O)OCC1OC(OC2C(COC(=O)CCCCCCCC)OC(OC(=O)CCCCCCCC)C(OC(=O)CCCCCCCC)C2OC(=O)CCCCCCCC)C(OC(=O)CCCCCCCC)C(OC(=O)CCCCCCCC)C1OC(=O)CCCCCCCC (mixture of isomers) [REF 3, reference compound] | Slightly less soluble | 47 °C | – | translucent 4 | transparent/ | 46% | – | – | – | – | – | – | – | – | – | – | – | – | – | – | Observations ([2]; after 1 day at 37° C.): Some crystal growth on gel surface after; Observations ([2]; after 9 days at 37° C.): Crystals throughout gel after 9 days at; Observations ([2]; after 13 days at 37° C.): 37° C.; More crystals throughout gel after |
